Columns and labels:
[1] = Stability in storage of thermal transfer recorded images; settings: 50° C., 50 hours
Procedure: The recorded images obtained as described above were left standing in an atmosphere kept at 50° C. for 50 hours and, after the standing, were examined to determine the presence or absence of change caused on the images owing to the standing.
(§1) Ink compositions were prepared, transfer sheets produced, and transfer recording carried out by following the procedure of Example 89 while using the dye shown in Table 11 instead. The recorded images were tested for lightfastness and then for stability in storage in the same manner as in Example 89.
as §1, with “dyes” for “dye”, “12” for “11”

[2] = Solubility in toluene and methyl ethyl ketone, three-point scale; type: physicochemical
Excerpt: In these tables, the solubility is rated on the three-point scale, wherein Δ stands for a solubility of less than 1% by weight, .largecircle. for a solubility in the approximate range of 1 to 3% by weight, and .circleincircle. for a solubility of not less than 3% by weight.

[3] = Visible absorption spectrum (λmax, ε); type: physicochemical; settings: for ε: in M-1 cm-1 (unit assumed)
Color tone of the dye = type: physicochemical; settings: Tables 1-9

| SMILES | Stability in storage [1] | Solubility in methyl ethyl ketone [2] | Solubility in toluene ([2]; in toluene) | λ max ([3]; in chloroform) [nm] | ε ([3]; in chloroform, at λ max) | Color tone (Color tone of the dye) | Solubility ([2]; in toluene) | λ max ([3]; in toluene) [nm] | ε ([3]; in toluene) |
| --- | --- | --- | --- | --- | --- | --- | --- | --- | --- |
| O=C1c2c(O)ccc(O)c2C(=O)c2c(F)c(Nc3c(Cl)cccc3Cl)c(F)c(F)c21 [(22)] | Good | .largecircle. (a solubility in the approximate range of 1 to 3% by weight) | .circleincircle. (a solubility of not less than 3% by weight) | 521 | 9470 | Magenta |  |  |  |
| CCCCCCCCOc1c(F)c2c(c(F)c1Nc1ccc(C(=O)OCC)cc1)C(=O)c1c(O)ccc(O)c1C2=O [(33)] | Good |  |  |  |  |  |  |  |  |
| O=C1c2ccc(Nc3c(Cl)cccc3Cl)cc2C(=O)c2c(O)ccc(O)c21 [(102)] | Good |  |  |  |  |  | Not less than 3 % by weight | 516 | 15600 |
| COc1cccc(Nc2c(F)c3c(c(F)c2Nc2cccc(OC)c2)C(=O)c2c(O)ccc(O)c2C3=O)c1 [(133)] |  | .largecircle. (a solubility in the approximate range of 1 to 3% by weight) | .largecircle. (a solubility in the approximate range of 1 to 3% by weight) | 651 | 13400 | Cyan |  |  |  |
| O=C1c2c(O)ccc(O)c2C(=O)c2c(F)c(Nc3c(Cl)cccc3Cl)c(Nc3c(Cl)cccc3Cl)c(F)c21 [(138)] |  | .largecircle. (a solubility in the approximate range of 1 to 3% by weight) | .largecircle. (a solubility in the approximate range of 1 to 3% by weight) | 630 | 22300 | Blue |  |  |  |
| CCc1ccc(Cl)c(CC)c1Nc1c(F)c2c(c(F)c1Nc1c(CC)ccc(Cl)c1CC)C(=O)c1c(O)ccc(O)c1C2=O [(141)] | Good |  |  |  |  |  |  |  |  |
| CCCCCCCCOc1c(Nc2cccc(C(=O)OCC)c2)c(Nc2cccc(C(=O)OCC)c2)c(F)c2c1C(=O)c1c(O)ccc(O)c1C2=O [(156)] | Good |  |  |  |  |  |  |  |  |
| CCCCOc1c(Nc2c(CC)cccc2CC)c(Nc2c(CC)cccc2CC)c(F)c2c1C(=O)c1c(O)ccc(O)c1C2=O [(158)] | Good |  |  |  |  |  |  |  |  |
| CCCCOc1c(Nc2c(C(C)C)cccc2C(C)C)c(Nc2c(C(C)C)cccc2C(C)C)c(F)c2c1C(=O)c1c(O)ccc(O)c1C2=O [(159)] | Good |  |  |  |  |  |  |  |  |
| CCCCOc1c(Nc2c(CC)ccc(Cl)c2CC)c(Nc2c(CC)ccc(Cl)c2CC)c(F)c2c1C(=O)c1c(O)ccc(O)c1C2=O [(160)] | Good |  |  |  |  |  |  |  |  |
| CCCCOc1c(Nc2c(C)cccc2C(=O)OCC)c(Nc2c(C)cccc2C(=O)OCC)c(F)c2c1C(=O)c1c(O)ccc(O)c1C2=O [(162)] | Good |  |  |  |  |  |  |  |  |
| CCCCCCCCOc1c(Nc2c(Cl)cccc2Cl)c(Nc2c(Cl)cccc2Cl)c(F)c2c1C(=O)c1c(O)ccc(O)c1C2=O [(183)] | Good |  |  |  |  |  |  |  |  |
| CCCCNc1c(F)c2c(c(F)c1Nc1cccc(C(=O)OCC)c1)C(=O)c1c(O)ccc(O)c1C2=O [(227)] |  | .largecircle. (a solubility in the approximate range of 1 to 3% by weight) | .largecircle. (a solubility in the approximate range of 1 to 3% by weight) | 661 | 21000 | Cyan |  |  |  |
| CCCCNc1c(F)c2c(c(F)c1Nc1ccc(OC)cc1)C(=O)c1c(O)ccc(O)c1C2=O [(228)] |  | .largecircle. (a solubility in the approximate range of 1 to 3% by weight) | .largecircle. (a solubility in the approximate range of 1 to 3% by weight) | 666 | 22800 | Cyan |  |  |  |
| CCCCNc1c(F)c2c(c(F)c1Nc1ccccc1)C(=O)c1c(O)ccc(O)c1C2=O [(229)] |  | .largecircle. (a solubility in the approximate range of 1 to 3% by weight) | .largecircle. (a solubility in the approximate range of 1 to 3% by weight) | 666 | 15300 | Cyan |  |  |  |
| CCCCNc1c(F)c2c(c(NCCCC)c1NCCCC)C(=O)c1c(O)ccc(O)c1C2=O [(248)] |  | .largecircle. (a solubility in the approximate range of 1 to 3% by weight) | .largecircle. (a solubility in the approximate range of 1 to 3% by weight) | 614 | 14900 | Blue |  |  |  |
| Nc1c(Sc2ccccc2)c(Sc2ccccc2)c(F)c2c1C(=O)c1c(O)ccc(O)c1C2=O [(296)] |  | .largecircle. (a solubility in the approximate range of 1 to 3% by weight) | .largecircle. (a solubility in the approximate range of 1 to 3% by weight) | 542 | 12300 | Purple |  |  |  |
| O=C1c2c(O)ccc(O)c2C(=O)c2c(Nc3ccccc3)c(Sc3ccccc3)c(Sc3ccccc3)c(Nc3ccccc3)c21 [(297)] |  | .largecircle. (a solubility in the approximate range of 1 to 3% by weight) | .largecircle. (a solubility in the approximate range of 1 to 3% by weight) | 692 | 15900 | Cyan |  |  |  |
| O=C1c2c(O)ccc(O)c2C(=O)c2c(F)c(Sc3ccccc3)c(Sc3ccccc3)c(F)c21 [(298)] |  | .largecircle. (a solubility in the approximate range of 1 to 3% by weight) | .circleincircle. (a solubility of not less than 3% by weight) | 489 | 12700 | Orange |  |  |  |
| O=C(O)c1c(F)c(F)c(Sc2c(F)c3c(c(F)c2Sc2c(F)c(F)c(C(=O)O)c(F)c2F)C(=O)c2c(O)ccc(O)c2C3=O)c(F)c1F [(299)] |  | Δ (a solubility of less than 1% by weight) | Δ (a solubility of less than 1% by weight) | 510 | 12600 | Cinnabar |  |  |  |
| N#Cc1c(F)c(F)c(Sc2c(F)c3c(c(F)c2Sc2c(F)c(F)c(C#N)c(F)c2F)C(=O)c2c(O)ccc(O)c2C3=O)c(F)c1F [(300)] |  | Δ (a solubility of less than 1% by weight) | Δ (a solubility of less than 1% by weight) | 521 | 13200 | Cinnabar |  |  |  |
| O=C1c2c(O)ccc(O)c2C(=O)c2c(F)c(Sc3ccc(O)cc3)c(Sc3ccc(O)cc3)c(F)c21 [(301)] |  | .largecircle. (a solubility in the approximate range of 1 to 3% by weight) | .largecircle. (a solubility in the approximate range of 1 to 3% by weight) | 514 | 12900 | Cinnabar |  |  |  |
| COc1ccc(Sc2c(F)c3c(c(F)c2Sc2ccc(OC)cc2)C(=O)c2c(O)ccc(O)c2C3=O)cc1 [(302)] |  | .largecircle. (a solubility in the approximate range of 1 to 3% by weight) | .largecircle. (a solubility in the approximate range of 1 to 3% by weight) | 504 | 15100 | Cinnabar |  |  |  |
| CCCCCCSc1c(F)c2c(c(F)c1SCCCCCC)C(=O)c1c(O)ccc(O)c1C2=O [(303)] |  | .largecircle. (a solubility in the approximate range of 1 to 3% by weight) | .largecircle. (a solubility in the approximate range of 1 to 3% by weight) | 506 | 11300 | Orange |  |  |  |
| CCCCCCCCSc1c(F)c2c(c(F)c1SCCCCCCCC)C(=O)c1c(O)ccc(O)c1C2=O [(304)] |  | .largecircle. (a solubility in the approximate range of 1 to 3% by weight) | .largecircle. (a solubility in the approximate range of 1 to 3% by weight) | 504 | 14600 | Orange |  |  |  |
| CC(C)(C)Sc1c(F)c2c(c(F)c1SC(C)(C)C)C(=O)c1c(O)ccc(O)c1C2=O [(305)] |  | .circleincircle. (a solubility of not less than 3% by weight) | .circleincircle. (a solubility of not less than 3% by weight) | 506 | 15300 | Orange |  |  |  |
| O=C1c2c(O)ccc(O)c2C(=O)c2c(F)c(SC3CCCCC3)c(SC3CCCCC3)c(F)c21 [(306)] |  | .largecircle. (a solubility in the approximate range of 1 to 3% by weight) | .circleincircle. (a solubility of not less than 3% by weight) | 508 | 14000 | Orange |  |  |  |
| O=C1c2c(O)ccc(O)c2C(=O)c2c(Sc3ccccc3)c(Sc3ccccc3)c(Sc3ccccc3)c(Sc3ccccc3)c21 [(307)] |  | .largecircle. (a solubility in the approximate range of 1 to 3% by weight) | .largecircle. (a solubility in the approximate range of 1 to 3% by weight) | 495 | 12600 | Brown |  |  |  |
| CCCCSc1c(SCCCC)c(SCCCC)c2c(c1SCCCC)C(=O)c1c(O)ccc(O)c1C2=O [(308)] |  | .largecircle. (a solubility in the approximate range of 1 to 3% by weight) | .circleincircle. (a solubility of not less than 3% by weight) | 530 | 11100 | Magenta |  |  |  |

Reference: US5608091A, “Quinizarin compound, method for production thereof, and use therefor” (Nippon Shokubai Co., Ltd., priority 1993, dated 1997)
